According to patent US6893641B2, “Ganoderma lucidum spores for treatment of autoimmune diseases” (priority 1999, dated 2005):
“Also recorded” adds a separate entry of the source. Where two headings read alike, the source gives them in different places. Marks after values point to notes of the source that are not given here.

What was measured:
NIH mice [1] = settings: for No. of micronuclei: 10000 cells
Protocol: Test material: The GLSs were brown powders. After going through a 100 mesh sieve, 120 g of the samples were mixed with 300 mL distilled water (to give a concentration of 40 g/dL) and stirred for 15 min in a stirrer at 7000 rpm. They were then bottled, underwent disinfection and antiseptic treatments, and 1 mL of a pasty liquid was obtained, which was about 0.4 g of the samples. Direct gavage was carried out two times per day.
Mouse Bone Marrow Micronucleus Test:
Seventy (70) NIH mice with body weights of 20-23 g were used in this test. The mice were divided into 7 groups and testing was carried out according to the methods of the Toxicological Evaluation Procedures for Food Safety. Gavage was carried out twice, and 6 hrs after the second force feeding, the mice were sacrificed, and both of the femurs were taken out for the preparation of a biopsy, staining and examination under a microscope.

NIH mice [2] = assay: Mouse sperm deformation test; assay type: in vivo; settings: 0.04 g/kg, abdominal injections
From the text: 3. Sperm Deformation Test
Twenty five (25) NIH mice with body weights of 18-22 g, randomly divided into 5 groups and continuously force fed for 5 days (the Endoxan positive group received abdominal injections), were used in this test. Thirty five (35) days later, the animals were sacrificed and both testicles were taken out for the standard biopsy preparation and staining. Five thousand (5000) whole sperm from each group were examined under an oil immersion lens and the sperm deformation percentage was calculated.

TA97 = assay: Ames test, Petri dish mixing method, TA97; assay type: cell-based; settings: TA97 −S9, positive control, dose not given
Protocol: (§1) Test bacteria (TA97, TA98, TA100, TA102) were supplied by the Bureau of Food Inspection, Department of Health in Beijing. […] Using the Petri dish mixing method, two independent tests were carried out.

TA98 = assay: Ames test, Petri dish mixing method, TA98; assay type: cell-based; settings: TA98 −S9, positive control, dose not given
Protocol: as §1

TA100 = assay: Ames test, Petri dish mixing method, TA100; assay type: cell-based; settings: TA100 −S9, positive control, dose not given
Protocol: as §1

SLE mice = assay: T-lymphocyte populations in SLE mice under different treatments; assay type: in vivo
Protocol: Spleens, lymph nodes, and thymus glands were collected under sterile conditions from the DBA/2 or BALB/C mice. Lymphocytes were then isolated and washed with Hanks solution 3 times. Cells were stained with 0.5% trypan blue and examined for viability. The lymphocytes were then adjusted to the desired concentrations.
Kidney tissues were sampled and undergone morphologic analyses under light scope.
Statistical analyses and t test, were carried out using SPAAS 10.0 computer software.

[3] = blood at 168 hours after the first dosing, daily oral, GLSs 0.8 g/kg/day, prednisolone solution 50 mL/kg/day

## O=P1(N(CCCl)CCCl)NCCCO1 (centres unmarked) [Endoxan]
NIH mice [1]; listed as printed '(0.06)' g/kg under Endoxan
  No. of micronuclei: 249
NIH mice [1]; listed as printed '(0.06)' g/kg under Endoxan, p < 0.001 vs other groups
  Percentage of micronuclei: 24.9** 0/00
NIH mice [1]; listed as printed '^ Endoxan'
  Percentage of micronuclei: 1.2 0/00
  No. of micronuclei: 12
NIH mice [2]; 5000 sperm
  No of deformed sperm (count): 98
NIH mice [2]; p < 0.01 vs other groups
  Percentage deformation: 72.80**

## CCN(CC)CCCC(C)Nc1c2ccc(Cl)cc2nc2ccc(OC)cc12 (centres unmarked) [Atabrine]
TA97
  colonies due to reverse mutation: >1500
TA98
  colonies due to reverse mutation: >1433

## [N-]=[N+]=[N-] [Sodium azide]
TA100
  colonies due to reverse mutation: >1500

## C[C@]12C=CC(=O)C=C1CC[C@@H]1[C@@H]2[C@@H](O)C[C@@]2(C)[C@H]1CC[C@]2(O)C(=O)CO [prednisolone]
SLE mice; 168 hours after the first dosing
  T %, Th %, Ts % and Th/Ts ratio compared with control groups: much better than those in the SLE control group; also recorded: improved the T cell counts in similar degree as those of GLSs
SLE mice; [3]
  T(%): 51.30 ± 4.23%
  Th (%): 31.44 ± 3.21%
  Th/Ts: 1.12 ± 0.31
  Ts (%): 28.43 ± 3.12%
